Earlier results in patent US20080003281A1, “Modified Release Tablet Formulations for Proton Pump Inhibitors” (ASTRAZENECA AB, priority 2004, published 2008).

Test system: gastric acid
Details: 40 mg esomeprazole dose split into 20 mg bid

SMILES: COc1ccc2nc([S@@+]([O-])Cc3ncc(C)c(OC)c3C)[nH]c2c1 [esomeprazole, (−)-enantiomer of omeprazole]
- nocturnal gastric acid suppression: significantly improved
